These results are taken from ChEMBL document CHEMBL1127581, “Evolution of a novel series of [(N,N-dimethylamino)propyl]- and piperazinylbenzanilides as the first selective 5-HT1D antagonists” (J Med Chem, 1994).

One test is filed under the species Canis familiaris. The conditions noted are these: Canis lupus familiaris; Saphenous vein; filed as antagonist.
The target of the next test is D(3) dopamine receptor (Homo sapiens, UniProt P35462). In words: Binding affinity against dopamine D3 receptor.
For test [1], the target named is 5-hydroxytryptamine receptor 1D (Cavia porcellus) (UniProt Q60484). In words: Oral effective dose against hypothermia in the guinea pig caused by stimulation of central 5-hydroxytryptamine 1D receptors by the agonist GR-46611;range is 0.2-0.4. It is filed as functional.
Test [2] has as its target T1, 5-hydroxytryptamine receptor 1A (Rattus norvegicus, UniProt P19327).
T1 sequence (P19327 whole entry): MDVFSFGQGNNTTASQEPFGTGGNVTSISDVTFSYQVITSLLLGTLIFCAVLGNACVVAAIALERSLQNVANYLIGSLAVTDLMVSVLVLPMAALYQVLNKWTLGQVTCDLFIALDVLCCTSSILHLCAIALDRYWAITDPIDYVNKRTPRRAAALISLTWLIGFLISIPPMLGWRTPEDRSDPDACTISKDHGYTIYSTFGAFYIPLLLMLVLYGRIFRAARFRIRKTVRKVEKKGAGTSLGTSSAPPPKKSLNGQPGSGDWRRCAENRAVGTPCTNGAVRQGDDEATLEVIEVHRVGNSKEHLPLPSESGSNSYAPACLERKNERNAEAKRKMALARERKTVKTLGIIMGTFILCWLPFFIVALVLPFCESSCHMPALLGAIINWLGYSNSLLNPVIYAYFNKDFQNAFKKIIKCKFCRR
As to the kind of experiment: Binding affinity towards 5-hydroxytryptamine 1A receptor in rat hippocampus with [3H]8-OH-DPAT. It is filed as tissue-based.

In a further test the target is D(1A) dopamine receptor (Homo sapiens, UniProt P21728). As to the kind of experiment: Binding affinity against dopamine receptor D1.
A further test addresses D(2) dopamine receptor (Homo sapiens, UniProt P14416). In words: Binding affinity against dopamine D2 receptor.
The target of test [3] is T2, Adrenergic receptor alpha-2 (Homo sapiens, UniProt P08913+P18825+P18089).
T2 sequence (P08913 whole entry): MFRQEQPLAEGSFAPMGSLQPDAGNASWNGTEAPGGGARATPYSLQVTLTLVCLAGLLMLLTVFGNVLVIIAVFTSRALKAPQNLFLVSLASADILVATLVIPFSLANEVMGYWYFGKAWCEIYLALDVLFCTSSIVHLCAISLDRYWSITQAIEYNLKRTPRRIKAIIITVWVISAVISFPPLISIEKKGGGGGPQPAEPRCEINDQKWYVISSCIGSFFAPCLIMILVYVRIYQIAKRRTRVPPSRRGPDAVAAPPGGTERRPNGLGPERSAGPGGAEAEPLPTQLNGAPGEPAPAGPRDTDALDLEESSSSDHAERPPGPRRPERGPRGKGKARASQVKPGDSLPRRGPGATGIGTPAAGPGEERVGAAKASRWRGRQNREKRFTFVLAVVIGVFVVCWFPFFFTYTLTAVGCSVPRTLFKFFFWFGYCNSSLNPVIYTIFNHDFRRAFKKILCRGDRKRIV
T2 sequence (P18825 whole entry): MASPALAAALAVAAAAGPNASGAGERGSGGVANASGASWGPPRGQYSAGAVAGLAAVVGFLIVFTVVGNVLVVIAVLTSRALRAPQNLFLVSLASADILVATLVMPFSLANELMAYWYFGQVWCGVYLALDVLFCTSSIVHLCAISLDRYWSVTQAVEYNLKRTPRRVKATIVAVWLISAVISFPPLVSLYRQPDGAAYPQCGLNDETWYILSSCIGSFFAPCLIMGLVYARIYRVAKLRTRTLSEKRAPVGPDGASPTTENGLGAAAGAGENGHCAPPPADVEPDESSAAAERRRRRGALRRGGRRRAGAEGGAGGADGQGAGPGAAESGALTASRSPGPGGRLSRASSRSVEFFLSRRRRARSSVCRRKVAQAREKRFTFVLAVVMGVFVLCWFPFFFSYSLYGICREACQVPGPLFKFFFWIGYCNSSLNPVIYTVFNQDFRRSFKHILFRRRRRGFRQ
T2 sequence (P18089 whole entry): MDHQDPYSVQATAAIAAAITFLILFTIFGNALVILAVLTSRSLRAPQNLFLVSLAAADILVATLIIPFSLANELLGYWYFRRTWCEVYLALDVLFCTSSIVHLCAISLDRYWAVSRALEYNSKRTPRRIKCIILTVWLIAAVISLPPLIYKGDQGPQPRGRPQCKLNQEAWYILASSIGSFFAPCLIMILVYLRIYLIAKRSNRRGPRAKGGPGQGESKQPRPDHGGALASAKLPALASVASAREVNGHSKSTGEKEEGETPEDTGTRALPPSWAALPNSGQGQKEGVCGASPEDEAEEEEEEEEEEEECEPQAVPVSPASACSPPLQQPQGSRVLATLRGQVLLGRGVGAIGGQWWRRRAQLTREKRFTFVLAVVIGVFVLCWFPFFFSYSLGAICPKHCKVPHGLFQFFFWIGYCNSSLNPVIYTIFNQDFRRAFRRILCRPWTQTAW
In words: Binding affinity against alpha-2 adrenoceptor. It is filed as protein assay.

Test [4] deals with T3, Muscarinic acetylcholine receptor M2 (Homo sapiens, UniProt P08172).
T3 sequence (P08172 whole entry): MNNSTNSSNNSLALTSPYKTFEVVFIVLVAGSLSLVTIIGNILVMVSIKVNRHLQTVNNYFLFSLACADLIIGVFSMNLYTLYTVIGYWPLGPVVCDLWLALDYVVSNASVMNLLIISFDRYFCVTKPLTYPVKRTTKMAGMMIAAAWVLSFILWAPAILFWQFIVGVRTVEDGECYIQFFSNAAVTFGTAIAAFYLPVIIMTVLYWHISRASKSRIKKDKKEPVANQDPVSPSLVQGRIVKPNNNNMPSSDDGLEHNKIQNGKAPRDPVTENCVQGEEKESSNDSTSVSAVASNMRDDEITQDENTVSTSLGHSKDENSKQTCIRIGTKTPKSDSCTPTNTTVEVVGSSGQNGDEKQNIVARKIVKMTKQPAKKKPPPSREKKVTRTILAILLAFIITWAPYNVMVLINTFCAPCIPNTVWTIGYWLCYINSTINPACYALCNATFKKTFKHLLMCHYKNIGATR
In words: Binding affinity against muscarinic M2 receptor.

D(1A) dopamine receptor, sequence (P21728 whole entry): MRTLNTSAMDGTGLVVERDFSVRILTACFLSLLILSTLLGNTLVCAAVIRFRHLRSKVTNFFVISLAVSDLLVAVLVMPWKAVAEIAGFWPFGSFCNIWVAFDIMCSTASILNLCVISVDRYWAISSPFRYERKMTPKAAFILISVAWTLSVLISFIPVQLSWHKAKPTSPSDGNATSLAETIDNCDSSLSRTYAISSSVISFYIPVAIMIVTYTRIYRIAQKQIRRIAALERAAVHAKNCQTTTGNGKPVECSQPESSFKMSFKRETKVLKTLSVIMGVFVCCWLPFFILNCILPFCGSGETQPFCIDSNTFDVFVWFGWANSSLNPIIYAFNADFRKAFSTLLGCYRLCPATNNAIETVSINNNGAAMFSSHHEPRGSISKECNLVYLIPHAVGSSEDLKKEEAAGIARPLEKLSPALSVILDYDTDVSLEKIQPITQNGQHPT
D(2) dopamine receptor, sequence (P14416 whole entry): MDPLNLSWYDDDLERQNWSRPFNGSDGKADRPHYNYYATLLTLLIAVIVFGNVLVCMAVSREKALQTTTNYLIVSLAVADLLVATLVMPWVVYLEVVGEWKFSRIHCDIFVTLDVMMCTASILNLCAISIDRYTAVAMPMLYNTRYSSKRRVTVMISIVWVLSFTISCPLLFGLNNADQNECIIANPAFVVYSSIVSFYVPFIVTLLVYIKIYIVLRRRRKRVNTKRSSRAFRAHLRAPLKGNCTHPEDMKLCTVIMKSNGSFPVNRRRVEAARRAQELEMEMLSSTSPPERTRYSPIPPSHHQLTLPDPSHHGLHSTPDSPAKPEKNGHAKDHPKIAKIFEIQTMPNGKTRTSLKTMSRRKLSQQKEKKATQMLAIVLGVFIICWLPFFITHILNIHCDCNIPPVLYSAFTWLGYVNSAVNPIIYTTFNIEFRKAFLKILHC
5-hydroxytryptamine receptor 1D (Cavia porcellus), sequence (Q60484 whole entry): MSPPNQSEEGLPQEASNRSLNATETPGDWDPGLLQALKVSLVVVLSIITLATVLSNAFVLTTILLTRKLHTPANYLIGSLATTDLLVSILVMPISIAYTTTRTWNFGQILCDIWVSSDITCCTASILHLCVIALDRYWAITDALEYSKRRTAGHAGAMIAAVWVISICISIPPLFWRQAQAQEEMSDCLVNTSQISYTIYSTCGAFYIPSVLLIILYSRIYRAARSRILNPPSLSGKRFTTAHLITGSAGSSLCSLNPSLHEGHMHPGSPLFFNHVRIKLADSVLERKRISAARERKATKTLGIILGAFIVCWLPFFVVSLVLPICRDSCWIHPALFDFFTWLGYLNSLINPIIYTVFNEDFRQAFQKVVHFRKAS
D(3) dopamine receptor, sequence (P35462 whole entry): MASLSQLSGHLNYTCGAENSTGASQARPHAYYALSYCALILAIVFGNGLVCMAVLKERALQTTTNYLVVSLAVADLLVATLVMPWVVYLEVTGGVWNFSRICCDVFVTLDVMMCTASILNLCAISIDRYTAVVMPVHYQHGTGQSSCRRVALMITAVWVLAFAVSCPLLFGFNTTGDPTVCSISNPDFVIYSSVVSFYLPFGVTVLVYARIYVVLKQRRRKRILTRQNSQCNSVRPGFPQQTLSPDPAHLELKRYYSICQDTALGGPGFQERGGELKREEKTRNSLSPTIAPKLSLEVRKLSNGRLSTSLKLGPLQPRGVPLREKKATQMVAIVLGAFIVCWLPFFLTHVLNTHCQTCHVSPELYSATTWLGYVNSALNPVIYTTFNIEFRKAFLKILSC

Broadly, the Ki is the equilibrium dissociation constant of an inhibitor or competing ligand from its target. Read a low Ki as a stronger hold on the target. A word on the ED50: it is the dose at which the effect has come halfway, by size or by number of responders. A low value points to greater potency. `COc1ccc(NC(=O)c2ccc(-c3ccc(-c4noc(C)n4)cc3C)cc2)cc1N1CCN(C)CC1` [GR-127935]: the pKB entry in the test listed under Canis familiaris was “Antagonist”. Also, the Ki was over 10 µM on D(3) dopamine receptor; 0.316 µM in test [2]; over 10 µM at D(1A) dopamine receptor; over 10 µM on D(2) dopamine receptor; over 1 µM in test [4]. This compound also displayed an ED50 in test [1] of 0.3 mg/kg. Also, the Log Ki in test [3] was over -6.
